Measurements published in PMC6917776, “Discovery of a chemical probe for PRDM9” (Nature Communications, 2019).
Values joined by “and” are separate entries in the source; they are usually repeats but may differ in a detail not shown here. Identical values can stand only once.

Tested on: H3K4me3 at known PRDM9 binding loci and control TSS loci
Test: ChIP-qPCR of H3K4me3 in PRDM9-transfected HEK293T cells
Assay type: cell-based, human
Settings: Antibody H3K4me3; for 2^-dCq / dCq (IP-Input) / Cq: Figure 7 Replicate 2; for 2^-dCq (H3K4me3 IP relative to H3 IP): ChIP-qPCR Replicate 1; for Cq: ChIP-qPCR single well; for 2^-dCq (H3K4me3 ChIP relative to H3 ChIP): Replicate 1
Procedure: ChIP-qPCR assays were then conducted on known PRDM9 binding loci[26]. Ectopic expression of PRDM9^WT increased trimethylation of H3K4 (H3K4me3) at previously described PRDM9-specific intragenic and intergenic regions[26] (Fig. 7; Supplementary Fig. 12). […] The observed increases in H3K4me3 levels at intragenic and intergenic regions are therefore due directly to PRDM9 PR domain-dependent methylation activity, rather than through recruitment of other H3K4 methyltransferases or other indirect mechanisms.
ChIP qPCR analyses of H3K4me3 methylation levels of known PRDM9-bound loci and control loci. […] Concentrations used (µM) are indicated below each plot. (a–d) represent reported loci of PRDM9 methylation; (e, f) are transcriptional start sites (TSSs) which are not known loci of PRDM9 methylation. Data are normalized to total H3 and are presented as the mean ± upper and lower limits from two replicates. Representative plots of two independent experiments are shown in this figure. The coordinates and the genomic features associated with the assayed loci are indicated above each plot. Left Tailed Student's t-tests were performed by comparing DMSO (0 µM) treated cells to compound treated cells that have been transfected with the same plasmids. *p-value < 0.05 and **p-value < 0.01. Note that here we show a representative of two independent experiments (mean ± s.d of technical replicates) for our ChIP-qPCR experiments. Data obtained using this technique are inherently noisy due to stochastic differences in gene activity/histone positioning. Data are thus typically presented as representative rather than averaged. Source data are provided as a Source Data file.
HEK293T cells were transfected with 37.5 μg empty pcDNA3.1(+) vector (Invitrogen), or the same vector expressing either wild-type PRDM9 (PRDM9^WT) or a catalytically dead PRDM9 mutant (PRDM9^Mut) and 75 μL of Lipofectamine 2000 (Invitrogen) in 6 mL of Opti-MEM (GIBCO) for 48 h. […] ChIP assays were then performed as previously described. Briefly, cells were fixed in 1% formaldehyde and the fixation reaction was quenched in a final concentration of 0.1 M glycine. Cell pellets were first lysed in LB1 (50 mM HEPES-KOH pH 7.5, 140 mM NaCl, 1 mM EDTA, 10% Glycerol, 0.5% Igepal, 0.25% TritonX), washed once in LB2 Buffer (10 mM Tris-HCl pH 8, 200 mM NaCl, 1 mM EDTA, 0.5 mM EGTA) and finally sonicated in LB3 buffer (10 mM Tris-HCl pH 8, 100 mM NaCl, 1 mM EDTA, 0.5 mM EGTA, 0.1% Sodium deoxycholate, 0.5% N-laurosylsarcosine) using a bioruptor (Diagenode). Thereafter, 50 μg of chromatin was subjected to ChIP using the following antibodies purchased from Abcam: α-H3K4me3 (1:200, ab8580, lot:GR3207339-1) and α-H3 (1:250, ab1791, lot:GR300978-4). After extensive washing in RIPA wash buffer (50 mM HEPES-KOH pH 7.6, 100 mM LiCl, 1 mM EDTA, 1% Igepal, 0.7% Sodium Deoxycholate), DNA was eluted from beads. The eluted DNA was treated with RNase A and Proteinase K and purified using the QIAGEN PCR purification kit. qPCR was then carried out targeting the indicated loci (Supplementary Table 3). Upper and lower limits were defined by |2^−(dCq±s) − 2^−(∆Cq)|, where s = √((Standard deviation of Input Cq)^2 + (Standard deviation of Target Cq)^2). […]
formation. ChIP qPCR analyses of H3K4me3 methylation levels at known PRDM9-bound and control loci. Cells transfected with empty vector (negative control) or vectors overexpressing either wild-type PRDM9 (PRDM9 WT) or catalytically dead PRDM9 (PRDM9 MUT) were […]
Panels a-d represent reported loci of […]
(1 picture or pasted object on this page, not shown here)
PRDM9 methylation; e-f are TSSs which are not known sites of PRDM9 methylation. Data are normalized to total H3 and are presented as the mean ± upper and lower limits from two […]

[1] = Plasmid PRDM9WT, Drug Conc. 2.5

For `COc1cc(OC)cc(-c2noc(N3CCN(C)C4(CCN(c5ccnc(C)c5)CC4)C3)n2)c1` [MRK-740], the “2^-dCq” value [1] was 68.6717, the “dCq (IP-Input)” value [1] was -6.102 and the “2^-dCq” value (Plasmid PRDM9WT, Drug Conc. 5) was 143.684. For the same compound, the “dCq (IP-Input)” value (Plasmid PRDM9WT, Drug Conc. 5) was -7.167, the “2^-dCq” value (Plasmid PRDM9WT, Drug Conc. 10) was 36.5414 and the “dCq (IP-Input)” value (Plasmid PRDM9WT, Drug Conc. 10) was -5.191. The “2^-dCq (H3K4me3 IP relative to H3 IP)” value (Figure 7 E chr12:6643945-6644023 TSS (GAPDH), Plasmid Empty Vector, Drug Conc. 2.5) was 42.6349, the “2^-dCq (H3K4me3 IP relative to H3 IP)” value (Figure 7 E chr12:6643945-6644023 TSS (GAPDH), Plasmid Empty Vector, Drug Conc. 5) was 95.4581 and the “2^-dCq (H3K4me3 IP relative to H3 IP)” value (Figure 7 E chr12:6643945-6644023 TSS (GAPDH), Plasmid Empty Vector, Drug Conc. 10) was 117.266. For the same compound, the “2^-dCq (H3K4me3 IP relative to H3 IP)” value (Figure 7 E chr12:6643945-6644023 TSS (GAPDH), Plasmid PRDM9WT, Drug Conc. 2.5) was 25.3027, the “2^-dCq (H3K4me3 IP relative to H3 IP)” value (Figure 7 E chr12:6643945-6644023 TSS (GAPDH), Plasmid PRDM9WT, Drug Conc. 5) was 32.9385 and the “2^-dCq (H3K4me3 IP relative to H3 IP)” value (Figure 7 E chr12:6643945-6644023 TSS (GAPDH), Plasmid PRDM9WT, Drug Conc. 10) was 45.6823. The “2^-dCq (H3K4me3 IP relative to H3 IP)” value (Figure 7 F chr19:8510167-8510261 TSS (HNRNPM), Plasmid Empty Vector, Drug Conc. 2.5) was 71.0331, the “2^-dCq (H3K4me3 IP relative to H3 IP)” value (Figure 7 F chr19:8510167-8510261 TSS (HNRNPM), Plasmid Empty Vector, Drug Conc. 5) was 77.1794 and the “2^-dCq (H3K4me3 IP relative to H3 IP)” value (Figure 7 F chr19:8510167-8510261 TSS (HNRNPM), Plasmid Empty Vector, Drug Conc. 10) was 127.571. For the same compound, the “2^-dCq (H3K4me3 IP relative to H3 IP)” value (Figure 7 F chr19:8510167-8510261 TSS (HNRNPM), Plasmid PRDM9WT, Drug Conc. 2.5) was 23.4419, the “2^-dCq (H3K4me3 IP relative to H3 IP)” value (Figure 7 F chr19:8510167-8510261 TSS (HNRNPM), Plasmid PRDM9WT, Drug Conc. 5) was 34.0456 and the “2^-dCq (H3K4me3 IP relative to H3 IP)” value (Figure 7 F chr19:8510167-8510261 TSS (HNRNPM), Plasmid PRDM9WT, Drug Conc. 10) was 45.2017. For the same compound, the Cq [1] was 20.9173, the Cq (Plasmid PRDM9WT, Drug Conc. 5) was 20.8427 and 20.8648 and the Cq (Plasmid PRDM9WT, Drug Conc. 10) was 21.3604 and 21.0972. The “2^-dCq (H3K4me3 ChIP relative to H3 ChIP)” value (Figure 7 A, chr2:128811847-128811944 (Intergenic), Plasmid Empty Vector, Drug Conc. 2.5) was 0.4418, the “2^-dCq (H3K4me3 ChIP relative to H3 ChIP)” value (Figure 7 A, chr2:128811847-128811944 (Intergenic), Plasmid Empty Vector, Drug Conc. 5) was 0.3019 and the “2^-dCq (H3K4me3 ChIP relative to H3 ChIP)” value (Figure 7 A, chr2:128811847-128811944 (Intergenic), Plasmid Empty Vector, Drug Conc. 10) was 0.3892. The “2^-dCq (H3K4me3 ChIP relative to H3 ChIP)” value (Figure 7 A, chr2:128811847-128811944 (Intergenic), Plasmid PRDM9WT, Drug Conc. 2.5) was 1.223, the “2^-dCq (H3K4me3 ChIP relative to H3 ChIP)” value (Figure 7 A, chr2:128811847-128811944 (Intergenic), Plasmid PRDM9WT, Drug Conc. 5) was 0.9838 and the “2^-dCq (H3K4me3 ChIP relative to H3 ChIP)” value (Figure 7 A, chr2:128811847-128811944 (Intergenic), Plasmid PRDM9WT, Drug Conc. 10) was 1.179. The “2^-dCq (H3K4me3 ChIP relative to H3 ChIP)” value (Figure 7 B, chr8:49932778-49932856 (Intergenic), Plasmid Empty Vector, Drug Conc. 2.5) was 0.3289, the “2^-dCq (H3K4me3 ChIP relative to H3 ChIP)” value (Figure 7 B, chr8:49932778-49932856 (Intergenic), Plasmid Empty Vector, Drug Conc. 5) was 0.2554 and the “2^-dCq (H3K4me3 ChIP relative to H3 ChIP)” value (Figure 7 B, chr8:49932778-49932856 (Intergenic), Plasmid Empty Vector, Drug Conc. 10) was 0.5965. For the same compound, the “2^-dCq (H3K4me3 ChIP relative to H3 ChIP)” value (Figure 7 B, chr8:49932778-49932856 (Intergenic), Plasmid PRDM9WT, Drug Conc. 2.5) was 4.659, the “2^-dCq (H3K4me3 ChIP relative to H3 ChIP)” value (Figure 7 B, chr8:49932778-49932856 (Intergenic), Plasmid PRDM9WT, Drug Conc. 5) was 2.677 and the “2^-dCq (H3K4me3 ChIP relative to H3 ChIP)” value (Figure 7 B, chr8:49932778-49932856 (Intergenic), Plasmid PRDM9WT, Drug Conc. 10) was 2.675.
